Results taken from patent US8158656B2, “2-indolinone derivatives as multi-target protein kinase inhibitors and histone deacetylase inhibitors” (Shenzhen Chipscreen Biosciences Ltd., priority 2008, dated 2012).

Assays:
Format in all cases: cell-based
HDAC3 = biological target: T1, HDAC3 (Homo sapiens, UniProt O15379); assay: GDF11 reporter assay in HeLa cells; details: for EC50: 24 hours; for HDAC3 (GDF11 reporter assay) % Max Resp of CS055 at 3 μM: relative to CS055 at 3 μM
T1 construct: endogenous in cells; host or cells: HeLa
T1 sequence (O15379 whole entry): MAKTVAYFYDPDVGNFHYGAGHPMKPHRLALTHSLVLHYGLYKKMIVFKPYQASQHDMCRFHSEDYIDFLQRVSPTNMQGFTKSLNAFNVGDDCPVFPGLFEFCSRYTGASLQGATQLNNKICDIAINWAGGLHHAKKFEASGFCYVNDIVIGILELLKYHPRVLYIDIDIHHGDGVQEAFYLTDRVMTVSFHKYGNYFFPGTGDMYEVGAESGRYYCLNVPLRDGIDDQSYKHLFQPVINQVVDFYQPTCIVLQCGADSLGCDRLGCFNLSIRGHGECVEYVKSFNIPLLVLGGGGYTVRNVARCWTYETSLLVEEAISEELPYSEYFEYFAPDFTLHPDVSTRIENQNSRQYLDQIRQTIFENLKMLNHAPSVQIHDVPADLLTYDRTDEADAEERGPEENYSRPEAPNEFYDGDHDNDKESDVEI
T1 sequence (Q9Y618 whole entry partner): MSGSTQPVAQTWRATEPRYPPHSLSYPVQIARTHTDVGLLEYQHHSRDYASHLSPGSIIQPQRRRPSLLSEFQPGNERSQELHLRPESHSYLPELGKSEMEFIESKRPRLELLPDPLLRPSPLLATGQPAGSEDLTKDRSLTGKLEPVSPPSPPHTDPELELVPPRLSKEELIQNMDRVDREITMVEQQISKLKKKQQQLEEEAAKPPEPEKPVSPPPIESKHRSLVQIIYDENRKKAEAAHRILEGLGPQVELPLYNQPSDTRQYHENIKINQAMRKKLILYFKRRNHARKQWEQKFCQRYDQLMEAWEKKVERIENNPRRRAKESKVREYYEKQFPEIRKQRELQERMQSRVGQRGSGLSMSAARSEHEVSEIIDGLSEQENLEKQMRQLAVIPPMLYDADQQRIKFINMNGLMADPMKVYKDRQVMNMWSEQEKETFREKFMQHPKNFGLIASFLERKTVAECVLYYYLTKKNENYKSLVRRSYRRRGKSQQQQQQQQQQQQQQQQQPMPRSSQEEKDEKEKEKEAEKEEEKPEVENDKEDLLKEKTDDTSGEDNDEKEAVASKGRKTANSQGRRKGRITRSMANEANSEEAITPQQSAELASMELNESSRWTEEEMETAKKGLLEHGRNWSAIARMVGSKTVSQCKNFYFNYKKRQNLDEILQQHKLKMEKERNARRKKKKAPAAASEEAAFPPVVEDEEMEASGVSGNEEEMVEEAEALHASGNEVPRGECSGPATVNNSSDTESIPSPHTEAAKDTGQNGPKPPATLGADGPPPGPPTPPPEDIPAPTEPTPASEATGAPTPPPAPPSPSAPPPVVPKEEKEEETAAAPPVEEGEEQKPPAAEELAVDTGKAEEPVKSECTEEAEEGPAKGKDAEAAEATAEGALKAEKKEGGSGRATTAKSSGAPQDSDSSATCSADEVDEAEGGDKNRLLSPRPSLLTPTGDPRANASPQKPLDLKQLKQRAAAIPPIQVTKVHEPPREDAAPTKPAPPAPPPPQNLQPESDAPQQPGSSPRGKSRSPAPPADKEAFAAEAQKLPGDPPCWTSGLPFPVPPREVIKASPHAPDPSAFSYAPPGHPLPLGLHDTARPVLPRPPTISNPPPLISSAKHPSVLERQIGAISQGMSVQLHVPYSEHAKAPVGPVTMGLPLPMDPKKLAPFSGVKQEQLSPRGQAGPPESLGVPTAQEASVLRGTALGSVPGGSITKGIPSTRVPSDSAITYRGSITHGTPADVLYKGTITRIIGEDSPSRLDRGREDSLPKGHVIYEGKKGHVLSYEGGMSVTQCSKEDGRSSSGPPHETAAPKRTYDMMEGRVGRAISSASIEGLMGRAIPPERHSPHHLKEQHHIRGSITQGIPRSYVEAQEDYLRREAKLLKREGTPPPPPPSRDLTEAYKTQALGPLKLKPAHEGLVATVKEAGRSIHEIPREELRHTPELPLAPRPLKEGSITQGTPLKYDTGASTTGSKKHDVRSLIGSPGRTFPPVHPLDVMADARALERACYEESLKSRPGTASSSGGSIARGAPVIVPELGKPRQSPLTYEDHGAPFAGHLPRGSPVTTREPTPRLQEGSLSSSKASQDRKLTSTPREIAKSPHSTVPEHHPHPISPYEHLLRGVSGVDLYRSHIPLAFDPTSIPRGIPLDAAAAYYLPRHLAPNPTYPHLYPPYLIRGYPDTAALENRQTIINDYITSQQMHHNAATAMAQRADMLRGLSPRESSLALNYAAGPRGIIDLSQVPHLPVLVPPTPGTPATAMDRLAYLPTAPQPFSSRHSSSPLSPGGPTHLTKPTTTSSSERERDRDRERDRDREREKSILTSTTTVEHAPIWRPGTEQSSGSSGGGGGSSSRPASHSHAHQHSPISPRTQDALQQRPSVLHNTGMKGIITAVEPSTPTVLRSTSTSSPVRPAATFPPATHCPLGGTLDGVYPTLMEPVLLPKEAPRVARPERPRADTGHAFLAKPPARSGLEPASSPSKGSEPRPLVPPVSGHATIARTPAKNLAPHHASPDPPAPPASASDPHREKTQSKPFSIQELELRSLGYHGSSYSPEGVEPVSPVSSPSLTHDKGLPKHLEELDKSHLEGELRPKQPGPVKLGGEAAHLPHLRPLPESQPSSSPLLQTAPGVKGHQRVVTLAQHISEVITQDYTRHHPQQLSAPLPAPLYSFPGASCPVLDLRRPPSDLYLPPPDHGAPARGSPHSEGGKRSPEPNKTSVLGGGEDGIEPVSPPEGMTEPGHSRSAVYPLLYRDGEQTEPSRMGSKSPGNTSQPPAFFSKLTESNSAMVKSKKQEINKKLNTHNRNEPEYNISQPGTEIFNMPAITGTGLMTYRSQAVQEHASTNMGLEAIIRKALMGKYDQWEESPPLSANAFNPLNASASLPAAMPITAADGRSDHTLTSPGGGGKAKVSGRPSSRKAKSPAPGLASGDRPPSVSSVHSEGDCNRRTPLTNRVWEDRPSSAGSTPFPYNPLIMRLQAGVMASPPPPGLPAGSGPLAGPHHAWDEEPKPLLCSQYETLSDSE
Procedure: HDAC subtype selectivity inhibition assay of tested compounds was carried out by several reporter gene assays experiments. Briefly, HeLa cells were seeded in 96-well plates the day before transfection to give a confluence of 50-80%. Cells were transfected with one of reporter gene plasmid containing a promoter sequence or response element upstream of a luciferase gene construct using FuGene6 transfection reagent according to the manufacturer's instruction (Roche). The promoters or response elements including p21-promoter, gdf11-promoter, MEF-binding element (MEF2), Nur77-promoter were fused upstream to the luciferase gene reporter construct. For normalizing the transfection efficiency, a GFP expression plasmid was cotransfected. Cells were allowed to express protein for 24 hours followed by addition of individual compounds or the vehicle (DMSO). 24 hours later the cells were harvested, and the luciferase assay and GFP assay were performed using corresponding assay kits according to the manufacturer's instructions (Promega).

HCT-8 = assay: Tumor cell proliferation (MTS), HCT-8; details: Homo sapiens, HCT-8, 72 hours
Procedure: (§1) Measurement of in vivo cell proliferation:
(§2) Tumor cells were trypsinized and plated into 96-well plates at 3,000 per well and incubated in complete medium with 10% FBS for 24 hours. Compounds were added over a final concentration range of 100 μmol/L to 100 nmol/L in 0.1% DMSO and incubated for 72 hours in complete medium. The effects on proliferation were determined by addition of MTS reagent (Promega) according to the instruction, incubation for 2 hours at 37° C. in CO2 incubator, and record the absorbance at 490 nm using an ELISA plate reader.

Bel-7402 = assay: Tumor cell proliferation (MTS), Bel-7402; details: Homo sapiens, Bel-7402, 72 hours
Procedure: as §1, §2

A549 = assay: Tumor cell proliferation (MTS), A549; details: Homo sapiens, A549, 72 hours
Procedure: as §1, §2

SMILES | EC50 (HDAC3) [µM] | HDAC3 (GDF11 reporter assay) % Max Resp of CS055 at 3 μM (HDAC3) [%] | GI50 (HCT-8) [µM] | GI50 (Bel-7402) [µM] | GI50 (A549) [µM]
Cc1[nH]c(/C=C2\C(=O)Nc3ccc(F)cc32)c(C)c1C(=O)NCCNc1ccc(C(=O)Nc2ccccc2N)cn1 [Example 3, (Z)-N-(2-aminophenyl)-6-(2-(2-((5-fluoro-2-oxoindolin-3-ylidene)methyl)-3,5-dimethyl-1H-pyrrole-4-carboxamido)ethylamino)nicotinamide] | 1.9 | 106.2 | > 60 | > 60 | > 60
Cc1[nH]c(/C=N/N=C2\C(=O)Nc3ccc(F)cc32)c(C)c1C(=O)NCCNc1ccc(C(=O)Nc2ccccc2N)cn1 [Example 4, N-(2-aminophenyl)-6-(2-(2-(((5-fluoro-2-oxoindolin-3-ylidene)hydrazono)-methyl)-3,5-dimethyl-1H-pyrrole-4-carboxamido)ethylamino)nicotinamide] |  | 2.4 | > 60 | > 60 | > 60
Cc1[nH]c(/C=C2\C(=O)Nc3ccc(F)cc32)c(C)c1C(=O)NCCCNc1ccc(C(=O)Nc2ccccc2N)cn1 [Example 6, (Z)-N-(2-aminophenyl)-6-(3-(2-((5-fluoro-2-oxoindolin-3-ylidene)methyl)-3,5-dimethyl-1H-pyrrole-4-carboxamido)propylamino)nicotinamide] | 1 | 75.6 | > 60 | > 60 | > 60
Cc1[nH]c(/C=N/N=C2\C(=O)Nc3ccc(F)cc32)c(C)c1C(=O)NCCCNc1ccc(C(=O)Nc2ccccc2N)cn1 [Example 7, N-(2-aminophenyl)-6-(3-(2-(((5-fluoro-2-oxoindolin-3-ylidene)hydrazono)-methyl)-3,5-dimethyl-1H-pyrrole-4-carboxamido)propylamino)nicotinamide] |  | 6.3 | > 60 | > 60 | > 60
Cc1[nH]c(/C=C2\C(=O)Nc3ccc(F)cc32)c(C)c1C(=O)NCCCCNc1ccc(C(=O)Nc2ccccc2N)cn1 [Example 9, (Z)-N-(2-aminophenyl)-6-(4-(2-((5-fluoro-2-oxoindolin-3-ylidene)methyl)-3,5-dimethyl-1H-pyrrole-4-carboxamido)butylamino)nicotinamide] | 15.5 | 81.4 | > 60 | > 60 | > 60
Cc1[nH]c(/C=N/N=C2\C(=O)Nc3ccc(F)cc32)c(C)c1C(=O)NCCCCNc1ccc(C(=O)Nc2ccccc2N)cn1 [Example 10, N-(2-aminophenyl)-6-(4-(2-(((5-fluoro-2-oxoindolin-3-ylidene)hydrazono)-methyl)-3,5-dimethyl-1H-pyrrole-4-carboxamido)butylamino)nicotinamide] |  | 8.3 | > 60 | > 60 | > 60
Cc1[nH]c(/C=C2\C(=O)Nc3ccc(F)cc32)c(C)c1C(=O)NCCNc1ccc(C(=O)Nc2ccc(F)cc2N)cn1 [Example 13, (Z)-N-(2-amino-4-fluorophenyl)-6-(2-(2-((5-fluoro-2-oxoindolin-3-ylidene)-methyl)-3,5-dimethyl-1H-pyrrole-4-carboxamido)ethylamino)nicotinamide] |  | 1.8 | > 60 | > 60 | > 60
Cc1[nH]c(/C=N/N=C2\C(=O)Nc3ccc(F)cc32)c(C)c1C(=O)NCCNc1ccc(C(=O)Nc2ccc(F)cc2N)cn1 [Example 14, N-(2-amino-4-fluorophenyl)-6-(2-(2-(((5-fluoro-2-oxoindolin-3-ylidene)-hydrazono)methyl)-3,5-dimethyl-1H-pyrrole-4-carboxamido)ethylamino)nicotinamide] |  | 2.0 | > 60 | > 60 | > 60
Cc1[nH]c(/C=C2\C(=O)Nc3ccc(F)cc32)c(C)c1C(=O)NCCCNc1ccc(C(=O)Nc2ccc(F)cc2N)cn1 [Example 16, (Z)-N-(2-amino-4-fluorophenyl)-6-(3-(2-((5-fluoro-2-oxoindolin-3-ylidene)-methyl)-3,5-dimethyl-1H-pyrrole-4-carboxamido)propylamino)nicotinamide] |  | 1.8 | > 60 | > 60 | > 60
Cc1[nH]c(/C=N/N=C2\C(=O)Nc3ccc(F)cc32)c(C)c1C(=O)NCCCNc1ccc(C(=O)Nc2ccc(F)cc2N)cn1 [Example 17, N-(2-amino-4-fluorophenyl)-6-(3-(2-(((5-fluoro-2-oxoindolin-3-ylidene)-hydrazono)methyl)-3,5-dimethyl-1H-pyrrole-4-carboxamido)propylamino)nicotinamide] |  | 3.8 | > 60 | > 60 | > 60
Cc1[nH]c(/C=C2\C(=O)Nc3ccc(F)cc32)c(C)c1C(=O)NCCCCNc1ccc(C(=O)Nc2ccc(F)cc2N)cn1 [Example 19, (Z)-N-(2-amino-4-fluorophenyl)-6-(4-(2-((5-fluoro-2-oxoindolin-3-ylidene)-methyl)-3,5-dimethyl-1H-pyrrole-4-carboxamido)butylamino)nicotinamide] |  | 2.0 | > 60 | > 60 | > 60
Cc1[nH]c(/C=N/N=C2\C(=O)Nc3ccc(F)cc32)c(C)c1C(=O)NCCCCNc1ccc(C(=O)Nc2ccc(F)cc2N)cn1 [Example 20, N-(2-amino-4-fluorophenyl)-6-(4-(2-(((5-fluoro-2-oxoindolin-3-ylidene)-hydrazono)methyl)-3,5-dimethyl-1H-pyrrole-4-carboxamido)butylamino)nicotinamide] |  | 4.1 | > 60 | > 60 | > 60
